Experimental data from US8138315B2, “Anti-alpha V immunoliposome compositions, methods and uses” (Centocor Ortho Biotech Inc., priority 2007, dated 2012).

Legend:
[1] = system: A375.S2 cells; assay: Binding and internalization of liposomes at 37° C., confocal microscopy; assay type: cell-based, human; details: 37° C. for 10 min, washed, incubated 1 hour
Procedure: (§1) Several human tumor cells bearing human αVβ3/5 integrins were used: (1) A375.S2, human melanoma cell line; (2) MDA-MB-231, Human Breast Carcinoma Cell line; (3) A2780, Human Ovarian Carcinoma Cell line; (4) HT29, Human Colon Carcinoma Cell line; (5) A549, Human Lung Carcinoma Cell line.
Liposomes were prepared as described in Example 1, except in two aspects. First, Dextran Alexa Fluor 488 (Cat No. D-22910, from Molecular Probes) was included in the hydration buffer during the passive encapsulation step of liposome formation, and after the sizing step dialysis was used to remove any unencapsulated Alexa. Second, instead of inserting Fab-PEG-lipid into the liposome bilayer, maleimide-PEG-lipid (MalPEG-DSPE) was inserted into the liposome bilayer at approximately 800 MalPeg-DSPE per liposome at 60° C. for 1 Hr. The insertion step was followed by the conjugation of the Fab to the reactive end of the lipopolymer. The appropriate amount of Fab was added to the MalPEG-DSPE inserted liposomes to achieve a 90:1 anti-alphaV-Fab targeting ligands per liposome ratio. These liposomes were used in the binding and internalization studies described below. […]
A375.S2 cells were harvested by scraping and then resuspended to obtain individualized cells and rejuvenated for 1 hour, at 37° C. About 1 million cells of each tumor type were counted and distributed into individual centrifugation tubes. […]

[2] = system: murine melanoma cell line, B16F10; assay: Cytotoxicity assay (cell viability, CellTiter 96), negative control; assay type: cell-based; parameters: unit not given beside the values; details: Murine melanoma B16-F10; 10 minutes at 37° C., washed, plated 3 and 6 days
[3] = system: A375.S2, human melanoma cell line; assay: Cytotoxicity assay (cell viability, CellTiter 96); assay type: cell-based; parameters: unit not given beside the values; details: 10 minutes at 37° C., washed, plated 3 and 6 days
Procedure: as §1
(§2) Cell viability was assayed using the CellTiter 96 AQueous One Solution Cell Proliferation Assay from Promega (Cat No. G3581). A Spectra Max 250 plate reader was used, with a reading wavelength of 490 nm. Confocal Microscopy was done using a Nikon, Eelipse, E600. An Eppendorf centrifuge 5804 was used.
(§3) Liposomes bearing 15:1, 40:1, 90:1 and 180:1 alpha-integrin Fab targeting ligands per liposome and containing doxorubicin were prepared as described in Example 1 and 2. These targeted-liposomes were used in the cytotoxicity assay using the various cells lines, as described below.
(§4) Cells were harvested by scraping and then resuspended at 37° C. for 1 hour to obtain individualized cells. About 1 million cells of each tumor type were counted and placed in individual centrifugation tubes. The tubes were centrifuged to obtain a cell pellet. The cells were then incubated with the targeted liposome compositions containing doxorubicin for 10 minutes at 37° C., with mild shaking, 140 rpm. Cells were treated with a quantity of liposomes sufficient to give a doxorubicin concentration of 40 μg/mL. […]

[4] = system: A2780, Human Ovarian Carcinoma Cell line; assay: Cytotoxicity assay (cell viability, CellTiter 96); assay type: cell-based; parameters: unit not given beside the values; details: ovarian cancer A2780; 10 minutes at 37° C., washed, plated 3 and 6 days
Procedure: as §1, §2, §3, §4

In the case of `COc1cccc2c1C(=O)c1c(O)c3c(c(O)c1C2=O)C[C@@](O)(C(=O)CO)C[C@@H]3O[C@H]1C[C@H](N)[C@H](O)[C@H](C)O1` [free dox, doxorubicin], the “binding and internalization into A375.S2 cells” value [1] is reported as “drug internalization is evident”, the IC50 of doxorubicin [2] is reported as over 200 and the IC50 of doxorubicin [3] is reported as over 200. The IC50 of doxorubicin [4] was over 200.
